Experimental data from PMC3066655 (Journal of medicinal chemistry, 2011).

Experiments:
[1] = molecular target: σ1 receptor (Cavia porcellus, UniProt Q60492); assay: σ1 receptor binding assay; parameters: species or system guinea pig; conditions: ratio of D3 and σ1 Ki values
[2] = molecular target: T1, σ2 receptor (Rattus norvegicus, UniProt Q5U3Y7); assay: σ2 receptor binding assay, [3H]-DTG, liver membrane homogenates; conditions: for D3/ σ2 ratio: ratio of D3 and σ2 Ki values
T1 sequence (Q5U3Y7 1-176): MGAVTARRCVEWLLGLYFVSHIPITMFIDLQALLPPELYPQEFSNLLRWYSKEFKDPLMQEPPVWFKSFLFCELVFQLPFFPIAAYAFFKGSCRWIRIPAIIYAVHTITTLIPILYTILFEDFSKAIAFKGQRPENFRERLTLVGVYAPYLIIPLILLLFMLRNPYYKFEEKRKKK

Chain of σ1 receptor (Q60492 whole entry): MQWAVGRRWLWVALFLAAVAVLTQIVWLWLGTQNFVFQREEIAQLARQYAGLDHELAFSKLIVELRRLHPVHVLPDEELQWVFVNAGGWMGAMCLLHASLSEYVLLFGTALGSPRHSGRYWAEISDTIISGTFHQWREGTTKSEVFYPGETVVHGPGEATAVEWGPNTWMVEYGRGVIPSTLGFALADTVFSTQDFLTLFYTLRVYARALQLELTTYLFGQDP

Compound	D3/ σ1 Ratio [1]	Ki [2]	D3/ σ2 ratio [2]
O=C(NC/C=C/CN1CCN(c2ccccc2OCCF)CC1)c1ccc(CCF)cc1.O=C(O)C(=O)O [Compound 21b, 4-(2-Fluoroethyl)-N-(4-(4-(2-(2-Fluoroethoxy)phenyl)piperazin-1-yl)-trans-butyl-2-enyl)benzamide]	6,541	2020 nM	1,839
O=C(NC/C=C/CN1CCN(c2ccccc2OCCF)CC1)c1ccc(-c2ccsc2)cc1.O=C(O)C(=O)O [Compound 21e, 4-(Thiophen-3-yl)-N-(4-(4-(2-(2-fluoroethoxy)phenyl)piperazin-1-yl)-trans-but-2-enyl)benzamide]	7,076	1320 nM	1,200
COc1ccccc1N1CCN(CCCCNC(=O)c2ccc(CCF)cc2)CC1 [Compound 2, reference compound]		2210 nM	
COc1ccccc1N1CCN(CCCCNC(=O)c2ccc(OCCOCCOCCF)cc2)CC1.O=C(O)C(=O)O [Compound 18c, 4-(2-(2-(2-Fluoroethoxy)ethoxy)ethoxy)-N-(4-(4-(2-methoxyphenyl)piperazin-1-l)butyl)benzamide]	1,159	1120 nM	
COc1ccccc1N1CCN(CCCCNC(=O)c2ccc(N(C)C)cc2)CC1 [Compound 1, 4-(Dimethylamino)-N-[4-(4-(2-methoxyphenyl)piperazin-1-yl)butyl]benzamide, reference compound]	1,573	1570 nM	1,970
COc1ccccc1N1CCN(CCCCNC(=O)c2ccc(OCCF)cc2)CC1 [Compound 18a, 4-(2-Fluoroethoxy)-N-(4-(4-(2-methoxyphenyl)-piperazin-1-yl)-butyl)benzamide]		660 ± 36 nM	
